In patent US5817840A, “Water soluble taxol derivatives” (The Scripps Research Institute, priority 1997, dated 1998):

Legend:
Format in all cases: cell-based
[1] = system: MCF-7 (breast carcinoma); assay: Cytotoxicity (sulphorhodamine B), cancer cell line, Table 1B; conditions: Homo sapiens, MCF7, 72 h
Description: (§3) The cytotoxicities were determined using the sulphorhodamine B assay method (Skehan, P. et al. J. Nat. Canc. Inst. 82, 1107 (1990)).

[2] = system: SIHA (cervix carcinoma); assay: as above; conditions: Homo sapiens, SiHa, 72 h
Description: as §3

[3] = system: W1-38 (normal human diploid lung); assay: Cytotoxicity, Example 8; conditions: W138, 72 h
Description: (§1) Tumor or normal cells were cultured in 96-well plates with the test compound in 200 μl of RPMI supplemented with 10% fetal bovine serum (Hyclone, Salt Lake City, Utah) at 37° C. in a humidified atmosphere containing 5% CO2 in air for 72 hours. Sulforhodamine B dissolved in 1% acetic acid was added, and the plates were incubated for 30 minutes at ambient temperature, washed with 1% acetic acid, and blotted. To the air-dried plates were added 100 μl of […] unbuffered TRIS base (pH 10.5) with shaking. The optical densities of the plates were measured with a microplate reader (Molecular Devices Thermomax) at 540 nm. The concentration of compound required to reduce the absorbance to 50% of control samples was recorded as IC50.
(§2) NHDF: Normal human dermal fibroblast (available from Clouelics Corp., San Diego, Calif.); HLF-1: Normal human diploid lung; W1-38; Normal human diploid lung; CHO; Chinese hamster ovary; SK-MEL-28: Melanoma; CAPAN-1: Pancreatic carcinoma; H322: lung carcinoma; MCF-7; Breast carcinoma; BT-549; Human breast ductal carcinoma; OVCAR-3: Human ovarian carcinoma; HT-29: Human adenocarcinoma, colon; SIHA: Human squamous carcinoma crvx; 786-0: Human perirenal cell adenocarci; PC-3: Human prostate adenocarcinoma; HL-60: Human promyelomic leukemia; MOLT-4: Human T-cell leukemia. All cell lines except NHDF are available from the American Tissue Culture Collection, Rockville, Md.

[4] = system: SK-MEL-28 (melanoma); assay: Cytotoxicity, Example 8; conditions: Homo sapiens, SK-MEL-28, 72 h
Description: as §1, §2

[5] = system: CHO (Chinese hamster ovary); assay: Cytotoxicity, Example 8; conditions: Cricetulus griseus, 72 h
Description: as §1, §2

[6] = system: NHDF (normal human dermal fibroblast); assay: Cytotoxicity, Example 8; conditions: 72 h
Description: as §1, §2

[7] = system: S1HA (human squamous carcinoma crvx); assay: Cytotoxicity, Example 8; conditions: 72 h
Description: as §1, §2

[8] = system: CAPAN-1 (pancreatic carcinoma); assay: Cytotoxicity, Example 8; conditions: Homo sapiens, CAPAN-1, 72 h
Description: as §1, §2

[9] = system: MCF-7 (breast carcinoma); assay: Cytotoxicity, Example 8; conditions: Homo sapiens, MCF7, 72 h
Description: as §1, §2

[10] = system: OVCAR-3 (human ovarian carcinoma); assay: Cytotoxicity, Example 8; conditions: OVCAR-3, 72 h
Description: as §1, §2

[11] = system: H322 (lung carcinoma); assay: Cytotoxicity, Example 8; conditions: NCI-H322, 72 h
Description: as §1, §2

[12] = system: PC-3 (human prostate adenocarcinoma); assay: Cytotoxicity, Example 8; conditions: 72 h
Description: as §1, §2

[13] = system: HLF-1 (normal human diploid lung); assay: Cytotoxicity, Example 8; conditions: HLF1, 72 h
Description: as §1, §2

[14] = system: HT-29 (human adenocarcinoma, colon); assay: Cytotoxicity, Example 8; conditions: HT-29, 72 h
Description: as §1, §2

[15] = system: 786-0 (human perirenal cell adenocarci); assay: Cytotoxicity, Example 8; conditions: 786-0, 72 h
Description: as §1, §2

[16] = system: BT-549 (human breast ductal carcinoma); assay: Cytotoxicity, Example 8; conditions: BT-549, 72 h
Description: as §1, §2

CC(=O)O[C@H]1C(=O)[C@@]2(C)[C@H]([C@H](OC(=O)c3ccccc3)[C@]3(O)C[C@H](OC(=O)[C@H](OC(=O)CS(=O)(=O)CC(=O)O)[C@@H](NC(=O)c4ccccc4)c4ccccc4)C(C)=C1C3(C)C)[C@]1(OC(C)=O)CO[C@@H]1C[C@@H]2O [Compound 5]
IC50 [1]: 10 µM | IC50 [2]: 100 µM | IC50 [3]: 13 µM | IC50 [4]: 100 µM | IC50 [5]: 100 µM | IC50 [6]: 190 nM | IC50 [7]: 50 µM | IC50 [8]: 190 nM | IC50 [9]: 61 µM | IC50 [10]: 98 nM | IC50 [11]: 5 µM | IC50 [12]: 50 µM | IC50 [13]: 13 µM | IC50 [14]: 98 nM | IC50 [15]: 130 nM | IC50 [16]: 98 nM
